Measurements taken from patent US20170305943A1, “COMPOUNDS FOR THE TREATMENT OF BACTERIAL INFECTIONS” (priority 2014, published 2017).
Values after ≈ are worked out from the molar mass of the structure shown.

Tests used:
Experiment in all cases: Bacterial Assay: Determination of Antibacterial Activity (MIC, broth microdilution or agar dilution)
Type in all cases: cell-based
[1] = system: Clostridium difficile (Isolate ID 027-01); conditions: Clostridioides difficile, 48 h, read-out: MIC (μg/mL) C. difficile (027-01)
In short: (§1)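 MICs were set by CLSI broth microdilution or agar dilution for anaerobes, read visually after 48 hours at 37° C. under anaerobic gas packs. Medium was reinforced clostridial medium with 0.1% defibrinated horse blood; values are binned as A ≦1.01, B >1.0-4.0, C >4.0-16 μg/mL.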

[2] = system: Clostridium difficile (Isolate ID ATCC 9689); conditions: Clostridioides difficile, ATCC9689, 48 h, read-out: C. difficile MIC Activity Range
In short: as §1

[3] = system: Clostridium difficile (Isolate ID BI-9); conditions: Clostridioides difficile, 48 h, read-out: MIC (μg/mL) C. difficile (B-I9)
In short: as §1

Compound	MIC [1]	MIC [2]	MIC [3]
NC(=O)c1c(F)ccc(O[C@H](CO)c2nc(-c3ccc(C(F)(F)F)cc3)c(Br)o2)c1F (single isomer, unassigned) [Compound 47]	0.12 µg/mL (≈ 0.237 µM)	< 1.01 µg/mL	0.12 µg/mL (≈ 0.237 µM)
C#CCCCCCCCCCOc1ccc(F)c(C(N)=O)c1F [Compound 7, 2,6-difluoro-3-(undec-10-yn-1-yloxy)benzamide]	0.12 µg/mL (≈ 0.371 µM)	< 1.01 µg/mL	0.12 µg/mL (≈ 0.371 µM)
CCCCCCCCCOc1cccc(C(N)=O)c1F [Compound 8, 2-fluoro-3-(nonyloxy)benzamide]	0.5 µg/mL (≈ 1.78 µM)	< 1.01 µg/mL	0.25 µg/mL (≈ 0.889 µM)
C#CCCCCCCCCCOc1cccc(C(N)=O)c1F [Compound 9, 2-fluoro-3-(undec-10-yn-1-yloxy)benzamide]	1 µg/mL (≈ 3.27 µM)	< 1.01 µg/mL	0.5 µg/mL (≈ 1.64 µM)
COc1ccc(-c2csc(COc3ccc(F)c(C(N)=O)c3F)n2)cc1 [Compound 10, 2,6-difluoro-3-{[4-(4-methoxyphenyl)-1,3-thiazol-2-yl]methoxy}benzamide]	4 µg/mL (≈ 10.6 µM)	1 to 4 µg/mL (≈ 2.66 to 10.6 µM)	2 µg/mL (≈ 5.31 µM)
NC(=O)c1c(F)ccc(OCc2nc(-c3ccc(Cl)cc3)cs2)c1F [Compound 11, 3-{[4-(4-chlorophenyl)-1,3-thiazol-2-yl]methoxy}-2,6-difluorobenzamide]	0.25 µg/mL (≈ 0.657 µM)	< 1.01 µg/mL	0.25 µg/mL (≈ 0.657 µM)
NC(=O)c1c(F)ccc(OCc2nc(-c3ccc(Cl)cc3)c(Br)s2)c1F [Compound 12, 3-{[5-bromo-4-(4-chlorophenyl)-1,3-thiazol-2-yl]methoxy}-2,6-difluorobenzamide]	1 µg/mL (≈ 2.18 µM)	< 1.01 µg/mL	1 µg/mL (≈ 2.18 µM)
NC(=O)c1c(F)ccc(OCc2nc(-c3ccc(C(F)(F)F)cc3)cs2)c1F [Compound 16, 2,6-difluoro-3-({4-[4-(trifluoromethyl)phenyl]-1,3-thiazol-2-yl}methoxy)benzamide]	0.5 µg/mL (≈ 1.21 µM)	< 1.01 µg/mL	0.5 µg/mL (≈ 1.21 µM)
NC(=O)c1c(F)ccc(OCCCCOc2ccc(Cl)c(Cl)c2)c1F [Compound 171, 3-[4-(3,4-dichlorophenoxy)butoxy]-2,6-difluorobenzamide]	–	< 1.01 µg/mL	–
NC(=O)c1c(F)ccc(OCCCCOc2cccc(Br)c2)c1F [Compound 172, 3-[4-(3-bromophenoxy)butoxy]-2,6-difluorobenzamide]	–	1 to 4 µg/mL (≈ 2.5 to 9.99 µM)	–
N#Cc1cccc(OCCCCOc2ccc(F)c(C(N)=O)c2F)c1 [Compound 173, 3-[4-(3-cyanophenoxy)butoxy]-2,6-difluorobenzamide]	–	4 to 16 µg/mL (≈ 11.5 to 46.2 µM)	–
NC(=O)c1c(F)ccc(OCCCCOc2cccc(S(F)(F)(F)(F)F)c2)c1F [Compound 174, 2,6-difluoro-3-{4-[3-(pentafluoro-lambda~6~- sulfanyl)phenoxy]butoxy}benzamide]	–	< 1.01 µg/mL	–
CC(C)(C)c1ccc(OCCCCOc2ccc(F)c(C(N)=O)c2F)cc1 [Compound 175, 3-[4-(4-tert-butylphenoxy)butoxy]-2,6-difluorobenzamide]	–	< 1.01 µg/mL	–
NC(=O)c1c(F)ccc(OCCCCOc2ccc(Br)cc2)c1F [Compound 176, 3-[4-(4-bromophenoxy)butoxy]-2,6-difluorobenzamide]	–	< 1.01 µg/mL	–
N#Cc1ccc(OCCCCOc2ccc(F)c(C(N)=O)c2F)cc1 [Compound 177, 3-[4-(4-cyanophenoxy)butoxy]-2,6-difluorobenzamide]	–	1 to 4 µg/mL (≈ 2.89 to 11.5 µM)	–
N/C(=N\O)c1c(F)ccc(OCCCCOc2ccc(C(F)(F)F)cn2)c1F [Compound 178, 2,6-difluoro-N′-hydroxy-3-(4-{[5-(trifluoromethyl)pyridin-2-yl]oxy}butoxy)benzenecarboximidamide]	–	4 to 16 µg/mL (≈ 9.87 to 39.5 µM)	–
NC(=O)c1c(F)ccc(NCCCCOc2ccc(C(F)(F)F)cn2)c1F [Compound 179, 2,6-difluoro-3-[(4-{[5-(trifluoromethyl)pyridin-2-yl]oxy}butyl)amino]benzamide]	–	4 to 16 µg/mL (≈ 10.3 to 41.1 µM)	–
CN(CCCCOc1ccc(C(F)(F)F)cn1)c1ccc(F)c(C(N)=O)c1F [Compound 180, 2,6-difluoro-3-[methyl(4-{[5-(trifluoromethyl)pyridin-2-yl]oxy}butyl)amino]benzamide]	–	1 to 4 µg/mL (≈ 2.48 to 9.92 µM)	–
NC(=O)c1c(F)ccc(N(CCO)CCCCOc2ccc(OC(F)(F)F)cc2)c1F [Compound 181, 2,6-difluoro-3-[(2-hydroxyethyl){4-[4-(trifluoromethoxy)phenoxy]butyl}amino] benzamide]	–	1 to 4 µg/mL (≈ 2.23 to 8.92 µM)	–
N#CCCCN(CCCCOc1ccc(OC(F)(F)F)cc1)c1ccc(F)c(C(N)=O)c1F [Compound 182, 3-[(3-cyanopropyl){4-[4-(trifluoromethoxy)phenoxy]butyl)amino]-2,6-difluorobenzamide]	–	4 to 16 µg/mL (≈ 8.48 to 33.9 µM)	–

Compound	MIC [1]	MIC [2]	MIC [3]
NC(=O)CN(CCCCOc1ccc(OC(F)(F)F)cc1)c1ccc(F)c(C(N)=O)c1F [Compound 183, 3-[(2-amino-2-oxoethyl){4-[4-(trifluoromethoxy)phenoxy]butyl}amino]-2,6-difluorobenzamide]	–	4 to 16 µg/mL (≈ 8.67 to 34.7 µM)	–
COCCN(CCCCOc1ccc(OC(F)(F)F)cc1)c1ccc(F)c(C(N)=O)c1F [Compound 184, 2,6-difluoro-3-[(2-methoxyethyl){4-[4-(trifluoromethoxy)phenoxy]butyl}amino]benzamide]	–	1 to 4 µg/mL (≈ 2.16 to 8.65 µM)	–
Cc1ccc(CN(CCCCOc2ccc(OC(F)(F)F)cc2)c2ccc(F)c(C(N)=O)c2F)cn1 [Compound 185, 2,6-difluoro-3-([(6-methylpyridin-3-yl)methyl]{4-[4-(trifluoromethoxy)phenoxy]butyl}amino)benzamide]	–	4 to 16 µg/mL (≈ 7.85 to 31.4 µM)	–
CCOC(=O)CN(CCCCOc1ccc(OC(F)(F)F)cc1)c1ccc(F)c(C(N)=O)c1F [Compound 186, ethyl N-(3-carbamoyl-2,4-difluorophenyl)-N-{4-[4-(trifluoromethoxy)phenoxy]butyl}glycinate]	–	1 to 4 µg/mL (≈ 2.04 to 8.16 µM)	–
NC(=O)c1c(F)ccc(N(CCCCOc2ccc(OC(F)(F)F)cc2)CC(=O)O)c1F [Compound 187, N-(3-carbamoyl-2,4-difluorophenyl)-N-{4-[4-(trifluoromethoxy)phenoxy]butyl}glycine]	–	4 to 16 µg/mL (≈ 8.65 to 34.6 µM)	–
NC(=O)c1c(F)ccc(OCc2cc(-c3ccc(Cl)cc3)cs2)c1F [Compound 188, 3-{[4-(4-chlorophenyl)thiophen-2-yl]methoxy}-2,6-difluorobenzamide]	–	< 1.01 µg/mL	–
CCOC(=O)c1cc(Cl)ccc1-c1csc(COc2ccc(F)c(C(N)=O)c2F)n1 [Compound 190, ethyl 2-{2-[(3-carbamoyl-2,4-difluorophenoxy)methyl]-1,3-thiazol-4-yl}-5-chlorobenzoate]	–	4 to 16 µg/mL (≈ 8.83 to 35.3 µM)	–
COc1ccc(-c2nc(COc3ccc(F)c(C(N)=O)c3F)sc2-c2cccc(Cl)c2O)cc1 [Compound 191, 3-{[5-(3-chloro-2-hydroxyphenyl)-4-(4-methoxyphenyl)-1,3-thiazol-2-yl]methoxy}-2,6-difluorobenzamide]	–	4 to 16 µg/mL (≈ 7.95 to 31.8 µM)	–
COc1cc(-c2csc(COc3ccc(F)c(C(N)=O)c3F)n2)ccc1Cl [Compound 195, 3-{[4-(4-chloro-3-methoxyphenyl)-1,3-thiazol-2-yl]methoxy}-2,6-difluorobenzamide]	–	4 to 16 µg/mL (≈ 9.74 to 38.9 µM)	–
NC(=O)c1c(F)ccc(OCc2nc(-c3ccc(Cl)c(O)c3)cs2)c1F [Compound 196, 3-{[4-(4-chloro-3-hydroxyphenyl)-1,3-thiazol-2-yl]methoxy}-2,6-difluorobenzamide]	–	1 to 4 µg/mL (≈ 2.52 to 10.1 µM)	–
COc1ccc(C#Cc2csc(COc3ccc(F)c(C(N)=O)c3F)n2)cc1 [Compound 197, 2,6-difluoro-3-({4-[(4-methoxyphenyl)ethynyl]-1,3-thiazol-2-yl}methoxy)benzamide]	–	< 1.01 µg/mL	–
NC(=O)c1c(F)ccc(OCc2nc(CCc3cccc(Cl)c3)cs2)c1F [Compound 199, 3-({4-[2-(3-chlorophenyl)ethyl]-1,3-thiazol-2-yl}methoxy)-2,6-difluorobenzamide]	–	< 1.01 µg/mL	–
Cc1nn(-c2ccc(Cl)cc2)nc1COc1ccc(F)c(C(N)=O)c1F [Compound 200, 3-{[2-(4-chlorophenyl)-5-methyl-2H-1,2,3-triazol-4-yl]methoxy}-2,6-difluorobenzamide]	–	1 to 4 µg/mL (≈ 2.64 to 10.6 µM)	–
NC(=O)c1c(F)ccc(OCc2nc(-c3ccc(Cl)nc3)cs2)c1F [Compound 201, 3-{[4-(6-chloropyridin-3-yl)-1,3-thiazol-2-yl]methoxy}-2,6-difluorobenzamide]	–	1 to 4 µg/mL (≈ 2.62 to 10.5 µM)	–
NC(=O)c1c(F)ccc(OCc2cnn(-c3ccc(Cl)cc3)n2)c1F [Compound 202, 3-{[2-(4-chlorophenyl)-2H-1,2,3-triazol-4-yl]methoxy}-2,6-difluorobenzamide]	–	1 to 4 µg/mL (≈ 2.74 to 11 µM)	–
COc1ccc(-c2nc(COc3ccc(F)c(C(N)=O)c3F)oc2-c2cccc(Cl)c2O)cc1 [Compound 204, 3-{[5-(3-chloro-2-hydroxyphenyl)-4-(4-methoxyphenyl)-1,3-oxazol-2-yl]methoxy}-2,6-difluorobenzamide]	–	4 to 16 µg/mL (≈ 8.22 to 32.9 µM)	–
N#Cc1cc(Cl)ccc1-c1csc(COc2ccc(F)c(C(N)=O)c2F)n1 [Compound 206, 3-{[4-(4-chloro-2-cyanophenyl)-1,3-thiazol-2-yl]methoxy}-2,6-difluorobenzamide]	–	< 1.01 µg/mL	–
NC(=O)c1c(F)ccc(OCc2nc(-c3ccc(Cl)cc3)c(-c3cccc(O)c3)o2)c1F [Compound 210, 3-{[4-(4-chlorophenyl)-5-(3-hydroxyphenyl)-1,3-oxazol-2-yl]methoxy}-2,6-difluorobenzamide]	–	4 to 16 µg/mL (≈ 8.76 to 35 µM)	–
NC(=O)c1c(F)ccc(OCc2nc(-c3ccc(C(F)(F)F)cc3)c(Br)s2)c1F [Compound 211, 3-({5-bromo-4-[4-(trifluoromethyl)phenyl]-1,3-thiazol-2-yl}methoxy)-2,6-difluorobenzamide]	–	1 to 4 µg/mL (≈ 2.03 to 8.11 µM)	–
CC(Nc1ccc(F)c(C(N)=O)c1F)c1nc(-c2ccc(OC(F)(F)F)cc2)c(Br)o1 (centres unmarked) [Compound 212, 3-[(1-{5-bromo-4-[4-(trifluoromethoxy)phenyl]-1,3-oxazol-2-yl}ethyl)amino]-2,6-difluorobenzamide]	–	1 to 4 µg/mL (≈ 1.98 to 7.9 µM)	–
